Results published in patent US20230079757A1, “METHODS AND MATERIALS FOR TREATING CANCER” (Mayo Foundation for Medical Education and Research, priority 2020, published 2023).
Residue numbers refer to the chain shown, from its start. Each block holds one molecule with its values, some of them ahead of it. l = locked nucleic acid (LNA); d = 2'-deoxy (DNA)

Columns and labels:
[1] = system: Foxa1 protein; assay: Western blot analysis of Foxa1 protein in MyC-CaP cells after ASO transfection; type: cell-based; details: MyC-CaP murine prostate cancer cells, 48 hours after transfection, vs control ASO
Method: (§1) FIGS. 19A-19B. FOXA1 ASOs sensitize prostate cancer to anti-PD-L1 immunotherapy in mice. (FIG. 19A) Western blot analysis of Foxal protein in MyC-CaP mouse prostate cancer cells at 48 hours after transfection with control ASO (Con ASO), Foxal gene specific ASO1, or Foxa1 gene specific ASO2. Erk2 was used as a loading control. (FIG. 19B) Growth of subcutaneous MyC-CaP prostate tumors in wild type intact FVB male mice. Mice were treated with anti-PD-L1 or non-specific IgG (10 mg/kg) in combination with control ASO (Con ASO) (12.5 mg/kg), Foxal ASO1 (12.5 mg/kg), or Foxa1 ASO2 (12.5 mg/kg) for the indicated number of days. Data shown as means ±s.d. (n=6). Statistical significance was determined by two-way ANOVA (* P<0.05; ** P <0.01; *** P <0.0001).
MyC-CaP murine prostate cancer cells were transfected with control ASO (Con ASO) or two Foxal-specific ASOs (Foxal ASO1 and Foxal ASO2).
The MyC-CaP murine prostate cancer cell line, originally derived from prostate tumors of Hi-Myc transgenic mice in FVB genetic background, was purchased from ATCC (Manassas, Va.).
Antibodies used include anti-FOXA1 antibody (# ab23738, Abcam), anti-ERK2 (# sc-1647, Santa Cruz Biotechnology), anti-mouse PD-L1 mAb (clone 10B5), and InVivoMAb mouse IgG1 isotype control (clone MOPC-21) (# BE0083, Bio X Cell).

[2] = system: MyC-CaP prostate tumors; assay: Growth of subcutaneous MyC-CaP prostate tumors in FVB male mice; type: in vivo; details: ASO 12.5 mg/kg intraperitoneal, n=6
Method: as §1
MyC-CaP cells (3×10^6) were injected subcutaneously into the right flank of 6-week-old wild-type intact FVB male mice. When the average tumor volume reached approximately 100 mm^3, mice were randomized into groups subsequently treated with intraperitoneal injection of anti-PD-L1 or non-specific control IgG (10 mg/kg) in combination with control antisense oligonucleotides (12.5 mg/kg), Foxal ASO1 (12.5 mg/kg), or Foxal-ASO2 (12.5 mg/kg).
Thirty six 6-week-old wild-type intact FVB mice were purchased from Jackson Laboratories (Bar Harbor, Me.). Tumor volume was measured by digital caliper and calculated using a formula of length×width×width×0.5.

[3] = system: TRAMP-C2 tumors; assay: Growth and survival of TRAMP-C2 prostate tumors in syngeneic C57BL/6 mice treated intratumorally with Poly(I:C); type: in vivo
Source text: (§2) FIGS. 13A-13H. FOXA1 overexpression confers cancer immuno- and chemo-therapy resistance in mice and patients. FIG. 13A) Schematic diagram of generation and Poly(I:C) treatment of TRAMP-C2 prostate tumors in syngeneic mice. FIG. 13B) Growth of TRAMP-C2-Vector and TRAMP-C2-FOXA1ΔαH3 tumors treated with or without Poly(I:C). FIG. 13C) Tumor-free survival of syngeneic mice bearing TRAMP-C2-Vector or TRAMP-C2-FOXA1ΔαH3 tumors administrated with or without Poly(I:C). Statistical significance was determined by Log-rank (Mantel-Cox) test. FIGS. 13D and 13E) PhenoGraph-defined cellular distribution and clustering, as defined by tSNE1 and tSNE2, colored by cellular phenotypes in TRAMP-C2-Vector and TRAMP-C2-FOXA1ΔαH3 tumors from mice at 16 days post vehicle or Poly(I:C) treatment (FIG. 13D). Data were derived from all normalized viable single cells, subjected to the PhenoGraph algorithm. Data in the bar graphs (FIG. 13E) are means ±s.d, n=3. […] Statistical significance was determined by unpaired two-tailed Student's t tests in FIGS. 13E, 13F and 13G. FIG. 13H) Progression-free survival of patients with FOXA1-expression low or high urothelial carcinoma treated with anti-PD1 immunotherapy. Statistical significance was determined by Log-rank (Mantel-Cox) test.
To directly explore the role of FOXA1 in inhibiting cancer immune response, stable murine prostate cancer TRAMP-C2 cell lines overexpressing FOXA1-WT, cancer-associated mutant FOXA1-R261G and DNA binding-deficient mutant FOXA1ΔαH3, were established. […]
TRAMP-C2-Vector or TRAMP-C2-FOXA1ΔαH3 cells (3×10^6) were injected subcutaneously into the right flank of 8-week old male C57BL/6 on day 0. Tumors were measured twice per week with calipers and the volume calculated (length×width×width×0.5). Poly I:C (2.5 mg/kg, 100 pl) purchased from Sigma-Aldrich (# P1530) or vehicle (PBS, 100 pl) was administered by intratumoral injection twice per week (five doses in total) and tumors were measured twice per week until the tumor volume reached the maximum allowed size ([…]). […]

[4] = system: TRAMP-C2 tumors; assay: CyTOF analysis of immune cells in TRAMP-C2 tumors after Poly(I:C); type: in vivo, mice
Source text: as §2
TRAMP-C2-Vector or TRAMP-C2-FOXA1ΔαH3 cells (3×10^6) were injected subcutaneously into the right flank of 8-week old male C57BL/6 on day 0. Tumors were measured twice per week with calipers and the volume calculated (length×width×width×0.5). Poly I:C (2.5 mg/kg, 100 pl) purchased from Sigma-Aldrich (# P1530) or vehicle (PBS, 100 pl) was administered by intratumoral injection twice per week (five doses in total) and tumors were measured twice per week until the tumor volume reached the maximum allowed size ([…]). For CyTOF and Immunofluorescence experiments, mice were euthanized at 48 hours post the last administration.
Single tumor cells were isolated using the Mouse Tumor Dissociation Kit (Miltenyi Biotec, # 130-096-730) following standard protocol. CyTOF staining panels are detailed in Table 3. […]

[5] = biological target: T1, STAT2 (human, UniProt P52630 1-851); assay: co-IP of ectopically expressed proteins in 293T cells (FIG. 11E)
T1 construct: also called endogenous STAT2
Method: (§3) For extraction of nuclear and cytoplasmic proteins from cells, NE-PER Nuclear and Cytoplasmic Extraction Kit (# 78835, Thermo Fisher Scientific) was used according to the manufacturer's instructions. IP buffer (50 mM Tris-HCl pH7.5, 150 mM NaCl, 1% NP40, 0.5% Sodium Deoxycholate) was used to extract whole cell lysate. P rotein A/G agarose (# 20421, Thermo Fisher Scientific) was used for immunoprecipitation of FOXA1 (# ab23738, Abcam) and Flag-tag (dilution 1:1000; # F1804, Sigma-Aldrich). Monoclonal anti-HA agarose (# A2095, Sigma-Aldrich) was used for HA-tag Co-IP. For glutathione-S-transferase (GST) pulldown assay, GST-tagged STAT2 fragment expressed at E. coli was purified by Glutathione Sepharose 4B beads (# 84-239, Genesee Scientific) and incubated with lysate from 293T cells expressing interested proteins, and GST pulldown assays were performed. For protein co-IP, samples eluted in IP butter were incubated with agarose beads and antibodies overnight at 4° C. and washed with 6 times with IP buffer in the following day. Samples were boiled for 10 minutes in 50 μl sample buffer (2% SDS, 10% glycerol, 10% β-mercaptoethanol, bromophenol blue and Tris-HCl, pH 6.8) and subjected to Western blotting.

[6] = biological target: T2, GST-tagged STAT2 DNA binding domain (a.a. 312-486) (UniProt P52630 312-486); assay: mutagenesis and GST pull down (FIG. 9E)
T2 construct: range 312-486; also called STAT2-DBD; STAT2 DBD; not shown: GST tag
T2 sequence (looked up): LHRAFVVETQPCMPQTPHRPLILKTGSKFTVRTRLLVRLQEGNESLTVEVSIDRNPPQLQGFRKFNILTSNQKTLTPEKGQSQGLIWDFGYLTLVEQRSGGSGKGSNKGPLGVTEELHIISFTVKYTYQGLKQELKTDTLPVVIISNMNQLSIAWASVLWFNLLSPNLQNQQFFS
Method: as §3

T1 sequence (P52630 whole entry): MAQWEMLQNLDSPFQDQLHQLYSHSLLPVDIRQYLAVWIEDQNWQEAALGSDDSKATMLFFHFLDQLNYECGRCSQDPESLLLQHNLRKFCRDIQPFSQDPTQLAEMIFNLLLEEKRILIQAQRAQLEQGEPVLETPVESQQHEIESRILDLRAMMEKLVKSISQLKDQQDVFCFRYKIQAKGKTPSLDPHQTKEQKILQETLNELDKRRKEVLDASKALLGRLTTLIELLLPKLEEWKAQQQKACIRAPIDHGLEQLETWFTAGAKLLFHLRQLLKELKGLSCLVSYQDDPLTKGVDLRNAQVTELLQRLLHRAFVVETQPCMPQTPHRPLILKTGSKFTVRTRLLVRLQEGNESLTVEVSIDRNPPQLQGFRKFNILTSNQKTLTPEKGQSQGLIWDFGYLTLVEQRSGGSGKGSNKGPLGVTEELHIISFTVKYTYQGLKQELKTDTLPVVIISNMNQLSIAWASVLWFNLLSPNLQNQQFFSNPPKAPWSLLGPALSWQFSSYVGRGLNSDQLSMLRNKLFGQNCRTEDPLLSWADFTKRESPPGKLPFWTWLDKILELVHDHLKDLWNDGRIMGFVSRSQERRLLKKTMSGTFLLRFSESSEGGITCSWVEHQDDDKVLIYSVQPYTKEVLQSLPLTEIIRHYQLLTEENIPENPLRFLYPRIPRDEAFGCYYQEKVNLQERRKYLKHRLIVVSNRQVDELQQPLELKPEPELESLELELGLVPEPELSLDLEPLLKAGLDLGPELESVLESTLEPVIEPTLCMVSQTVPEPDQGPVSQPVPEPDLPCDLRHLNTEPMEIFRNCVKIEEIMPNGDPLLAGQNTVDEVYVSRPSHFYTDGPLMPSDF

Molecule: Foxa1 ASO1: LNA/PS antisense oligo +G*+G*+T*A*G*C*G*C*C*A*T*A*A*G*G*A*G*+A*+G*+T (SEQ ID NO: 42) (antisense GGTAGCGCCATAAGGAGAGT; sugars from the 5' end l3 d14 l3, all phosphorothioate, methylation of C not given here)
- Foxa1 protein knockdown [1]: substantially knocked down
- tumor growth [2]: significantly inhibited tumor growth

Molecule: Foxa1 ASO2: LNA/PS antisense oligo +T*+G*+G*A*T*G*G*C*C*A*T*C*G*+T*+G*+A (SEQ ID NO: 43) (antisense TGGATGGCCATCGTGA; sugars from the 5' end l3 d10 l3, all phosphorothioate, methylation of C not given here)
- Foxa1 protein knockdown [1]: substantially knocked down
- tumor growth [2]: significantly inhibited tumor growth

Molecule: Poly(I:C)
- tumor growth-inhibitory effect ([3]; TRAMP-C2-FOXA1ΔαH3 tumors, Poly I:C 2.5 mg/kg intratumoral): largely diminished
- overall mouse survival ([3]; TRAMP-C2-Vector tumors, Poly I:C 2.5 mg/kg intratumoral): prolonged
- tumor growth ([3]; TRAMP-C2-Vector tumors, Poly I:C 2.5 mg/kg intratumoral twice per week, five doses): decreased the growth
- TILs, especially CD8+ T and NK cells ([4]; TRAMP-C2-FOXA1ΔαH3 tumors): such effect was diminished
- CD11b+Gr1+ myeloid-derived suppressor cells (MDSCs) ([4]; TRAMP-C2-Vector tumors): reduced
- TILs, especially CD8+ T and NK cells ([4]; TRAMP-C2-Vector tumors): discernibly increased

- binding result [5]: binds
B1: FOXA1-F266L (other, UniProt P55317 1-472, looked up)
chain: MLGTVKMEGHETSDWNSYYADTQEAYSSVPVSNMNSGLGSMNSMNTYMTMNTMTTSGNMTPASFNMSYANPGLGAGLSPGAVAGMPGGSAGAMNSMTAAGVTAMGTALSPSGMGAMGAQQAASMNGLGPYAAAMNPCMSPMAYAPSNLGRSRAGGGGDAKTFKRSYPHAKPPYSYISLITMAIQQAPSKMLTLSEIYQWIMDLFPYYRQNQQRWQNSIRHSLSFNDCFVKVARSPDKPGKGSYWTLHPDSGNMFENGCYLRRQKRLKCEKQPGAGGGGGSGSGGSGAKGGPESRKDPSGASNPSADSPLHRGVHGKTGQLEGAPAPGPAASPQTLDHSGATATGGASELKTPASSTAPPISSGPGALASVPASHPAHGLAPHESQLHLKGDPHYSFNHPFSINNLMSSSEQQHKLDFKAYEQALQYSPYGSTLPASLPLGSASVTTRSPIEPSALEPAYYQGVYSRPVLNTS
notes: Ectopically expressed in 293T cells

- binding result [5]: binds
B2: FOXA1-H247Q (other, UniProt P55317 1-472, looked up)
chain: B1 chain with H247Q, L266F
notes: as for B1

- binding result [5]: binds
B3: FOXA1-R261G (other, UniProt P55317 1-472, looked up)
chain: B1 chain with R261G, L266F
notes: as for B1

B4: FOXA1 forkhead domain-containing region (FKCR, a.a. 141-294) (other, UniProt P55317 141-294, looked up)
chain: MAYAPSNLGRSRAGGGGDAKTFKRSYPHAKPPYSYISLITMAIQQAPSKMLTLSEIYQWIMDLFPYYRQNQQRWQNSIRHSLSFNDCFVKVARSPDKPGKGSYWTLHPDSGNMFENGCYLRRQKRFKCEKQPGAGGGGGSGSGGSGAKGGPESR
notes: Expressed in 293T cells, and the lysate was used for GST pulldown; also called FOXA1-FKCR
- binding result [6]: binds
